For this experiment, the target named is glutaminyl cyclase (QC) (Homo sapiens (Human), UniProt Q16769). The settings on record: QC inhibition, 30° C.
Sequence of glutaminyl cyclase (QC) (Q16769 29-361): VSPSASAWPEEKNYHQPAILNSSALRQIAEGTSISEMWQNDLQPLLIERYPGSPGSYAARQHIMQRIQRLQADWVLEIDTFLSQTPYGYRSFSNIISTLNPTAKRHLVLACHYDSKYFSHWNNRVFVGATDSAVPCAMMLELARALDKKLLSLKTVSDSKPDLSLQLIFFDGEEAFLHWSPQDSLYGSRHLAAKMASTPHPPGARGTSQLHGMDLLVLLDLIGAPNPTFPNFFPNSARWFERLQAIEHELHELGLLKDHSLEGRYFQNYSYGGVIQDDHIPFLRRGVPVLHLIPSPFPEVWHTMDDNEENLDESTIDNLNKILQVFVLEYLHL

Experimental: All measurements were performed with a BioAssay Reader HTS-7000Plus for microplates (Perkin Elmer) at 30° C. QC activity was evaluated fluorometrically using H-Gln-βNA. The samples consisted of 0.2 mM fluorogenic substrate, 0.25 U pyroglutamyl aminopeptidase (Unizyme, Hørsholm, Denmark) in 0.2 M Tris/HCl, pH 8.0 containing 20 mM EDTA and an appropriately diluted aliquot of QC in a final volume of 250 μl. Excitation/emission wavelengths were 320/410 nm. The assay reactions were initiated by addition of glutaminyl cyclase. QC activity was determined from a standard curve of β-naphthylamine under assay conditions. One unit is defined as the amount of QC catalyzing the formation of 1 μmol pGlu-βNA from H-Gln-βNA per minute under the described conditions.
In a second fluorometric assay, QC was activity determined using H-Gln-AMC as substrate. Reactions were carried out at 30° C. utilizing the NOVOStar reader for microplates (BMG labtechnologies). The samples consisted of varying concentrations of the fluorogenic substrate, 0.1 U pyroglutamyl aminopeptidase (Qiagen) in 0.05 M Tris/HCl, pH 8.0 containing 5 mM EDTA and an appropriately diluted aliquot of QC in a final volume of 250 μl. Excitation/emission wavelengths were 380/460 nm. The assay reactions were initiated by addition of glutaminyl cyclase. […] The kinetic data were evaluated using GraFit software.
Samples consisted of the respective QC substrate, 0.3 mM NADH, 14 mM α-Ketoglutaric acid and 30 U/ml glutamate dehydrogenase in a final volume of 250 μl. […] All samples were measured at 30° C., using either the [sequence]luor Plus or the Sunrise (both from TECAN) reader for microplates. Kinetic data was evaluated using GraFit software.
For inhibitor testing, the sample composition was the same as described above, except of the putative inhibitory compound added. For a rapid test of QC-inhibition, samples contained 4 mM of the respective inhibitor and a substrate concentration at 1 KM. For detailed investigations of the inhibition and determination of Ki-values, influence of the inhibitor on the auxiliary enzymes was investigated first. […] The inhibitory constant was evaluated by fitting the set of progress curves to the general equation for competitive inhibition using GraFit software.

As usually defined, the IC50 is the concentration that inhibits the measured activity by half. `CN(Cc1ccc(F)cc1)C(=S)Nc1ccc2[nH]cnc2c1` [Example 65, 1-(4-fluorobenzyl)-3-(1H-benzo[d]imidazol-5-yl)-1-methylthiourea] had an IC50 of 404 µM.

Regarding `Fc1ccc(C2CCCN2C(=S)Nc2ccc3[nH]cnc3c2)cc1` (stereo not drawn) [Example 66, N-(1H-benzo[d]imidazol-5-yl)-2-(4-fluorophenyl)pyrrolidine-1-carbo-thioamide], the half-inhibitory concentration (IC50) turned out to be 128 µM.

Consider `S=C(Nc1ccc2[nH]cnc2c1)N1CCCC1` [Example 67, N-(1H-benzo[d]imidazol-5-yl)pyrrolidine-1-carbothioamide], for which it took 258 µM to reach half-maximal inhibition (IC50).

Regarding `S=C(Nc1ccc2[nH]cnc2c1)N1CCOCC1` [Example 68, N-(1H-benzo[d]imidazol-5-yl)morpholine-4-carbothioamide], the IC50 was determined as 169 µM.

In turn, `S=C(Nc1ccc2[nH]cnc2c1)N1CCCCC1` [Example 69, N-(1H-benzo[d]imidazol-5-yl)piperidine-1-carbothioamide] yielded an IC50 of 172 µM.

The compound `Fc1ccc(N2CCN(C(=S)Nc3ccc4[nH]cnc4c3)CC2)cc1` [Example 70, N-(1H-benzo[d]imidazol-5-yl)-4-(4-fluorophenyl)piperazine-1-carbo-thioamide] registered an IC50 of 323 µM.

The values are drawn from patent US9656991B2, “Inhibitors of glutaminyl cyclase” (PROBIODRUG AG, priority 2007, dated 2017).
